The subject of this assay is classical complement pathway. The assay is described as follows: In vitro haemolysis assay (inhibition of classical complement pathway). It counts as cell-based, human. A digest of the protocol:
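Serially diluted compound (9 points) was preincubated 15 min at room temperature with diluted human serum, titrated per batch to give 70-90% maximal haemolysis, in Tris/casein buffer pH 7.4 with Mg2+/Ca2+. Antibody-sensitized sheep erythrocytes were then added for 30 min at 37° C, and the reaction was stopped with EDTA. Haemolysis was read at A405, with IC50 from 4PL fit.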

[1] abbreviates: Table 3, human serum, sensitized sheep red blood cells, read-out: IC50[nM], in vitro analysis of inhibition of hemolysis.

Molecules are shown by their SMILES. Where two headings read alike, the source gives them in different places. Starred links: 1 amine or outer side, 2 acyl side, 3 side chain; linkers in the order of their positions; H or OH if unused. Positions of bridges follow the written chain, without caps; N, C: chain ends. Non-standard residues stand in square brackets, D forms with d. Residues, ends and D or L forms follow the SMILES beside them. Groups on a side chain read outwards from the residue. *: point of attachment. Trp(1-Me) = Cn1cc(C[C@H](N)C(=O)O)c2ccccc21; C18 diacid = O=C(O)CCCCCCCCCCCCCCCCC(=O)*; C16 diacid = O=C(O)CCCCCCCCCCCCCCC(=O)*; γGlu = O=C(O)[C@H](CCC(=O)[*:2])N[*:1]; AEEA = NCCOCCOCC(=O)O; Aoc = NCCCCCCCC(=O)O; Sar = CNCC(=O)O

As to `CC[C@H](C)[C@@H]1NC(=O)[C@@H](NC(=O)[C@H](Cc2ccc(O)cc2)NC(=O)[C@H](CCC(=O)O)NC(=O)CNC(=O)[C@H](CO)NC(=O)[C@H](C)NC(C)=O)CSSC[C@@H](C(=O)N(C)CC(=O)N[C@@H](CCC(=O)O)C(=O)NCC(=O)N[C@@H](CCC(=O)O)C(=O)N[C@@H](CCCCNC(=O)CC[C@H](NC(=O)CNC(=O)CC[C@H](NC(=O)CCCCCCCCCCCCCCCCC(=O)O)C(=O)O)C(=O)O)C(N)=O)NC(=O)[C@H](CCCNC(=N)N)NC(=O)[C@H](Cc2c[nH]cn2)NC(=O)[C@H](CCC(=O)O)NC(=O)CNC(=O)[C@H](Cc2c[nH]c3ccccc23)NC(=O)[C@H](CC(=O)O)NC(=O)[C@H](CCC(N)=O)NC(=O)[C@H](Cc2cn(C)c3ccccc23)NC1=O` [Compound 113] (Ac-ASGEYCI[Trp(1-Me)]QDWGEHRC[Sar]EGEK([γGlu-Gly-γGlu-C18 diacid])-NH2; disulfide 6-16), the 50% inhibitory concentration (IC50) under setting [1] was less than 500 nM.
`CC[C@H](C)[C@H](NC(C)=O)C(=O)N[C@H]1CSSC[C@@H](C(=O)N[C@H](C(=O)N[C@@H](CCC(=O)O)C(=O)NCC(=O)N[C@@H](CCCCNC(=O)COCCOCCNC(=O)COCCOCCNC(=O)CC[C@H](NC(=O)CCCCCCCCCCCCCCCCC(=O)O)C(=O)O)C(N)=O)[C@@H](C)O)NC(=O)[C@H](CCCNC(=N)N)NC(=O)[C@H](Cc2c[nH]cn2)NC(=O)[C@H](CCC(=O)O)NC(=O)CNC(=O)[C@H](Cc2c[nH]c3ccccc23)NC(=O)[C@H](CC(=O)O)NC(=O)[C@H](CCC(N)=O)NC(=O)[C@H](Cc2c[nH]c3ccccc23)NC(=O)[C@H]([C@@H](C)CC)NC1=O` [Compound 96] (Ac-ICIWQDWGEHRCTEGK([AEEA-AEEA-γGlu-C18 diacid])-NH2; disulfide 2-12): the concentration for half-maximal inhibition (IC50) under setting [1] was less than 1000 nM.
Still for that read-out and setting: next, `CC[C@H](C)[C@H](NC(C)=O)C(=O)N[C@H]1CSSC[C@@H](C(=O)N[C@H](C(=O)N[C@@H](CCC(=O)O)C(=O)NCC(=O)N[C@@H](CCCCNC(=O)CC[C@H](NC(=O)CCCCCCCCCCCCCCC(=O)O)C(=O)O)C(N)=O)[C@@H](C)O)NC(=O)[C@H](CCCNC(=N)N)NC(=O)[C@H](Cc2c[nH]cn2)NC(=O)[C@H](CCC(=O)O)NC(=O)CNC(=O)[C@H](Cc2c[nH]c3ccccc23)NC(=O)[C@H](CC(=O)O)NC(=O)[C@H](CCC(N)=O)NC(=O)[C@H](Cc2c[nH]c3ccccc23)NC(=O)[C@H]([C@@H](C)CC)NC1=O` [Compound 92] (Ac-ICIWQDWGEHRCTEGK([γGlu-C16 diacid])-NH2; disulfide 2-12): less than 1000 nM; `CC[C@H](C)[C@@H]1NC(=O)[C@@H](NC(=O)[C@H](Cc2ccc(O)cc2)NC(=O)[C@H](C)NC(=O)[C@H](CO)NC(=O)[C@H](CO)NC(=O)[C@H](CCC(=O)O)NC(C)=O)CSSC[C@@H](C(=O)N[C@H](C(N)=O)[C@@H](C)O)NC(=O)[C@H](CCCNC(=N)N)NC(=O)[C@H](Cc2c[nH]cn2)NC(=O)[C@H](CCC(=O)O)NC(=O)CNC(=O)[C@H](Cc2c[nH]c3ccccc23)NC(=O)[C@H](CC(=O)O)NC(=O)[C@H](CCC(N)=O)NC(=O)[C@H](Cc2c[nH]c3ccccc23)NC1=O` [Compound 10] (Ac-ESSAYCIWQDWGEHRCT-NH2; disulfide 6-16): less than 100 nM.
On the same count and under the same terms, next, `CC[C@H](C)[C@@H]1NC(=O)[C@@H](NC(=O)[C@H](Cc2ccc(O)cc2)NC(C)=O)CSSC[C@@H](C(=O)N[C@H](C(N)=O)[C@@H](C)O)NC(=O)[C@H](CCCNC(=N)N)NC(=O)[C@H](Cc2c[nH]cn2)NC(=O)[C@H](CCC(=O)O)NC(=O)CNC(=O)[C@H](Cc2c[nH]c3ccccc23)NC(=O)[C@H](CC(=O)O)NC(=O)[C@H](CCC(N)=O)NC(=O)[C@H](Cc2c[nH]c3ccccc23)NC1=O` [Compound 9] (Ac-YCIWQDWGEHRCT-NH2; disulfide 2-12): less than 100 nM.
On to `CC[C@H](C)[C@H](NC(C)=O)C(=O)N[C@H]1CSSC[C@@H](C(=O)N[C@H](C(=O)NCC(=O)N[C@@H](C)C(=O)N[C@@H](CCC(=O)O)C(=O)N[C@@H](CO)C(N)=O)[C@@H](C)O)NC(=O)[C@H](CCCNC(=N)N)NC(=O)[C@H](Cc2c[nH]cn2)NC(=O)[C@H](CCC(=O)O)NC(=O)CNC(=O)[C@H](Cc2c[nH]c3ccccc23)NC(=O)[C@H](CC(=O)O)NC(=O)[C@H](CCC(N)=O)NC(=O)[C@H](Cc2c[nH]c3ccccc23)NC(=O)[C@H](C(C)C)NC1=O` [D, reference compound] (Ac-ICVWQDWGEHRCTGAES-NH2; disulfide 2-12), for which the IC50 (Table 4, valine 3 versus isoleucine 3 pairs, read-out: CP hemolysis IC50) was determined as 210 nM.
Turning to `CC[C@H](C)[C@@H]1NC(=O)[C@@H](NC(=O)[C@H](Cc2ccccc2)NC(=O)[C@H](CCC(=O)O)NC(=O)[C@H](CO)NC(C)=O)CSSC[C@@H](C(=O)N[C@H](C(=O)N[C@@H](CCC(=O)O)C(=O)NCC(=O)N[C@@H](CCC(=O)O)C(=O)NCCCCCCCC(=O)N[C@@H](CCC(=O)O)C(=O)N[C@@H](CCCCNC(=O)CC[C@H](NC(=O)CNC(=O)CC[C@H](NC(=O)CCCCCCCCCCCCCCCCC(=O)O)C(=O)O)C(=O)O)C(N)=O)[C@@H](C)O)NC(=O)[C@H](CCCNC(=N)N)NC(=O)[C@H](Cc2c[nH]cn2)NC(=O)[C@H](CCC(=O)O)NC(=O)CNC(=O)[C@H](Cc2c[nH]c3ccccc23)NC(=O)[C@H](CC(=O)O)NC(=O)[C@H](CCC(N)=O)NC(=O)[C@H](Cc2cn(C)c3ccccc23)NC1=O` [Compound 137] (Ac-SEFCI[Trp(1-Me)]QDWGEHRCTEGE[Aoc]EK([γGlu-Gly-γGlu-C18 diacid])-NH2; disulfide 4-14), the 50% inhibitory concentration (IC50) under setting [1] was less than 100 nM.
Regarding `CC[C@H](C)[C@@H]1NC(=O)[C@@H](NC(=O)[C@H](Cc2ccccc2)NC(=O)[C@H](CCC(=O)O)NC(=O)[C@H](CO)NC(C)=O)CSSC[C@@H](C(=O)N[C@H](C(=O)N[C@@H](CCC(=O)O)C(=O)NCC(=O)N[C@@H](CCC(=O)O)C(=O)NCCCCCCCC(=O)N[C@@H](CCCCNC(=O)CC[C@H](NC(=O)CNC(=O)CC[C@H](NC(=O)CCCCCCCCCCCCCCCCC(=O)O)C(=O)O)C(=O)O)C(N)=O)[C@@H](C)O)NC(=O)[C@H](CCCNC(=N)N)NC(=O)[C@H](Cc2c[nH]cn2)NC(=O)[C@H](CCC(=O)O)NC(=O)CNC(=O)[C@H](Cc2c[nH]c3ccccc23)NC(=O)[C@H](CC(=O)O)NC(=O)[C@H](CCC(N)=O)NC(=O)[C@H](Cc2cn(C)c3ccccc23)NC1=O` [Compound 136] (Ac-SEFCI[Trp(1-Me)]QDWGEHRCTEGE[Aoc]K([γGlu-Gly-γGlu-C18 diacid])-NH2; disulfide 4-14), the IC50 under setting [1] was less than 100 nM.
On to `CC[C@H](C)[C@@H]1NC(=O)[C@@H](NC(=O)[C@H](Cc2ccccc2)NC(=O)[C@H](CCC(=O)O)NC(=O)[C@H](CO)NC(C)=O)CSSC[C@@H](C(=O)N[C@H](C(=O)N[C@@H](CCC(=O)O)C(=O)NCC(=O)N[C@@H](CCC(=O)O)C(=O)NCC(=O)NCC(=O)NCC(=O)N[C@@H](CCCCNC(=O)CC[C@H](NC(=O)CNC(=O)CC[C@H](NC(=O)CCCCCCCCCCCCCCCCC(=O)O)C(=O)O)C(=O)O)C(N)=O)[C@@H](C)O)NC(=O)[C@H](CCCNC(=N)N)NC(=O)[C@H](Cc2c[nH]cn2)NC(=O)[C@H](CCC(=O)O)NC(=O)CNC(=O)[C@H](Cc2c[nH]c3ccccc23)NC(=O)[C@H](CC(=O)O)NC(=O)[C@H](CCC(N)=O)NC(=O)[C@H](Cc2cn(C)c3ccccc23)NC1=O` [Compound 130] (Ac-SEFCI[Trp(1-Me)]QDWGEHRCTEGEGGGK([γGlu-Gly-γGlu-C18 diacid])-NH2; disulfide 4-14), for which, under setting [1], the IC50 was less than 100 nM.
As for `CCCC[C@H](N)C(=O)O` [Norleucine, reference compound], where the note is “Table 5, different residues at position 3 of Ac-IC(1)[…](1)T-NH2, read-out: IC50, CP hemolysis”, the IC50 was determined as 480 nM.
Take `CC[C@H](C)[C@@H]1NC(=O)[C@@H](NC(=O)[C@H](Cc2ccc(O)cc2)NC(=O)[C@H](C)NC(=O)[C@H](CO)NC(=O)CNC(=O)[C@H](CCC(=O)O)NC(C)=O)CSSC[C@@H](C(=O)N(C)CC(=O)N[C@@H](CCC(=O)O)C(N)=O)NC(=O)[C@H](CCCNC(=N)N)NC(=O)[C@H](Cc2c[nH]cn2)NC(=O)[C@H](CCC(=O)O)NC(=O)CNC(=O)[C@H](Cc2c[nH]c3ccccc23)NC(=O)[C@H](CCC(=O)O)NC(=O)[C@H](CCC(N)=O)NC(=O)[C@H](Cc2cn(C)c3ccccc23)NC1=O` [Compound 70] (Ac-EGSAYCI[Trp(1-Me)]QEWGEHRC[Sar]E-NH2; disulfide 6-16): the half-inhibitory concentration (IC50) under setting [1] was less than 100 nM.
As for `CC[C@H](C)[C@H](NC(=O)[C@H](C)NC(=O)[C@H](CO)NC(C)=O)C(=O)N[C@H]1CSSC[C@@H](C(=O)N[C@H](C(=O)N[C@@H](CCC(=O)O)C(=O)NCC(N)=O)[C@@H](C)O)NC(=O)[C@H](CCCNC(=N)N)NC(=O)[C@H](Cc2c[nH]cn2)NC(=O)[C@H](CCC(=O)O)NC(=O)CNC(=O)[C@H](Cc2c[nH]c3ccccc23)NC(=O)[C@H](CC(=O)O)NC(=O)[C@H](CCC(N)=O)NC(=O)[C@H](Cc2c[nH]c3ccccc23)NC(=O)[C@H]([C@@H](C)CC)NC1=O` [Compound 42] (Ac-SAICIWQDWGEHRCTEG-NH2; disulfide 4-14), under setting [1], the concentration for half-maximal inhibition (IC50) is less than 250 nM.
The same measure, in the same setting: for `CC[C@H](C)[C@H](NC(C)=O)C(=O)N[C@H]1CSSC[C@@H](C(=O)N[C@H](C(N)=O)[C@@H](C)O)NC(=O)[C@H](CCCNC(=N)N)NC(=O)[C@H](Cc2c[nH]cn2)NC(=O)[C@H](CCC(=O)O)NC(=O)CNC(=O)[C@H](Cc2c[nH]c3ccccc23)NC(=O)[C@H](CCCCN)NC(=O)[C@H](CCC(N)=O)NC(=O)[C@H](Cc2c[nH]c3ccccc23)NC(=O)[C@H]([C@@H](C)CC)NC1=O` [Compound 7] (Ac-ICIWQKWGEHRCT-NH2; disulfide 2-12) the value was less than 1000 nM.

Usually IC50 stands for the concentration needed to halve the response being measured.

Source of the values: patent US20220306695A1, “COMPSTATIN ANALOGUES AND THEIR MEDICAL USES” (priority 2019, published 2022).
